The target of assay [1] is Kappa-type opioid receptor (Cavia porcellus, UniProt P41144). The experiment in a line: Displacement of [3H]-U69593 from kappa opioid receptor in guinea pig cerebellum homogenates. The format is tissue-based.
The species named for the next assay is Cavia porcellus. The experiment in a line: Selectivity ratio of Ki for delta opioid receptor in guinea pig forebrain homogenates to Ki for mu opioid receptor in guinea pig forebrain homogenates. The format is tissue-based.
Assay [2] can be described thus: Displacement of [3H]-NTI from delta opioid receptor in guinea pig forebrain homogenates. Type of assay: tissue-based, Cavia porcellus, Brain.
A further assay concerns the target Mu-type opioid receptor (Cavia porcellus, UniProt P97266). The experiment in a line: Displacement of [3H]-DAMGO from mu opioid receptor in guinea pig forebrain homogenates. Type of assay: tissue-based, Brain.
The test system of assay [3] is Mus musculus. The experiment in a line: Ratio of morphine ED50 to compound ED50 for antinociceptive activity in sc dosed mouse by acetic acid writhing test. Type of assay: functional.
For assay [4], the system named is Mus musculus. The assay can be described thus: Antinociceptive activity in sc dosed mouse by acetic acid writhing test. The format is functional.

SMILES strings stand for the structures.

Chain of Mu-type opioid receptor (P97266 whole entry): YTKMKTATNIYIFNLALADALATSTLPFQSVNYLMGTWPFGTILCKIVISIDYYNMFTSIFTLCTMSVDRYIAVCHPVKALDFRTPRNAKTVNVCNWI
Chain of Kappa-type opioid receptor (P41144 whole entry): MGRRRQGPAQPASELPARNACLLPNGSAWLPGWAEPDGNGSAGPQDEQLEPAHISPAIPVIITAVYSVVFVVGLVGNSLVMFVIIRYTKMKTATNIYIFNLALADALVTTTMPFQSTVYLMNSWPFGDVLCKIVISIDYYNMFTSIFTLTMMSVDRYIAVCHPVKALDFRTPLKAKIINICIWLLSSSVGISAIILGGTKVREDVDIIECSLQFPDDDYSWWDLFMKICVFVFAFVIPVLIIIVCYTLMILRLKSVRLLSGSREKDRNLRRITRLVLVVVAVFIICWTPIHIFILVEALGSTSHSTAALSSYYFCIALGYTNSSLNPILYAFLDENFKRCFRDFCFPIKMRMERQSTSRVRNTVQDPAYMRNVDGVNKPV

With `Oc1ccc2c3c1O[C@H]1[C@]4(CC[C@@]5(O)[C@@H](C2)N(CC2CC2)CC[C@]315)O[C@@H]1N2[C@H]4O[C@]3(CC[C@@]4(O)[C@H]5Cc6ccc(O)c7c6[C@@]4(CCN5CC4CC4)[C@H]3O7)[C@@H]2O[C@]12CC[C@@]1(O)[C@H]3Cc4ccc(O)c5c4[C@@]1(CCN3CC1CC1)[C@H]2O5`, the results for the Ki (in assay [1]; in assay [2]; on Mu-type opioid receptor) were 22.1 nM, 122 nM and 22.2 nM, respectively. Moreover, the Ratio Ki in the assay listed under Cavia porcellus was determined as 5.5.
The matching figures for `CN1CC[C@]23c4c5ccc(O)c4O[C@H]2[C@]2(CC[C@@]3(O)[C@H]1C5)O[C@@H]1N3[C@H]2O[C@]2(CC[C@@]4(O)[C@H]5Cc6ccc(O)c7c6[C@@]4(CCN5CC4CC4)[C@H]2O7)[C@@H]3O[C@]12CC[C@@]1(O)[C@H]3Cc4ccc(O)c5c4[C@@]1(CCN3CC1CC1)[C@H]2O5`: 10.1 nM, 24.6 nM, 3.98 nM and 6.2.
With `O=C1CC[C@@]2(O)[C@H]3Cc4ccc(O)c5c4[C@@]2(CCN3CC2CC2)[C@H]1O5` [NALTREXONE], the Ki in assay [2] came out at 20.7 nM.
Consider `CN1CC[C@]23c4c5ccc(O)c4O[C@H]2[C@]2(CC[C@@]3(O)[C@H]1C5)O[C@@H]1N3[C@H]2O[C@]2(CC[C@@]4(O)[C@H]5Cc6ccc(O)c7c6[C@@]4(CCN5C)[C@H]2O7)[C@@H]3O[C@]12CC[C@@]1(O)[C@H]3Cc4ccc(O)c5c4[C@@]1(CCN3C)[C@H]2O5`, for which, in the assay on Mus musculus [3], the “Ratio ED50” value is on record as 16. In addition, the Ki was 16.1 nM in assay [1], 38.6 nM in assay [2] and 1.05 nM on Mu-type opioid receptor. In addition, the Activity result with Mus musculus [4] was “Dose-dependent effect”. The same compound displayed a median effective dose (ED50) with Mus musculus [4] of 0.037 mg/kg. Also, the Ratio Ki in the assay listed under Cavia porcellus turned out to be 36.8.
In the case of `Oc1ccc2c3c1O[C@H]1[C@]4(CC[C@H]5[C@@H](C2)N(CC2CC2)CC[C@@]351)O[C@@H]1N2[C@H]4O[C@]3(CC[C@H]4[C@H]5Cc6ccc(O)c7c6[C@@]4(CCN5CC4CC4)[C@H]3O7)[C@@H]2O[C@]12CC[C@H]1[C@H]3Cc4ccc(O)c5c4[C@@]1(CCN3CC1CC1)[C@H]2O5`, the inhibition constant (Ki) in assay [1] came to 43.2 nM; in assay [2], 53.7 nM; at Mu-type opioid receptor, 22.3 nM. Moreover, the Ratio Ki in the assay filed under Cavia porcellus was found to be 2.4.
The like results for `CN1CC[C@]23c4c5ccc(O)c4O[C@H]2[C@]2(CC[C@@]3(O)[C@H]1C5)O[C@@H]1N3[C@H]2O[C@]2(CC[C@@]4(O)[C@H]5Cc6ccc(O)c7c6[C@@]4(CCN5CC4CC4)[C@H]2O7)[C@@H]3O[C@]12CC[C@@]1(O)[C@H]3Cc4ccc(O)c5c4[C@@]1(CCN3C)[C@H]2O5` were, in that order, 10.9 nM, 23.5 nM, 1.85 nM and 12.7.
